Data as given in patent publication US11377425B1, “Small molecule modulators of IL-17” (LEO Pharma A/S, priority 2018, dated 2022).

Molecular target: T1, human IL-17AA (Homo sapiens, UniProt Q16552)
T1 construct: host or cells: HEK (human embryonic kidney) cells
T1 sequence (Q16552 24-155): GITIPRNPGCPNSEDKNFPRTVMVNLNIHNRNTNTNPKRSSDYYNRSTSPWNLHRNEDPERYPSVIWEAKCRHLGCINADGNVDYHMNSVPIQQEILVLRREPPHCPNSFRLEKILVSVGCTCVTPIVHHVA
Assay: IL-8 release assay in human epithelial keratinocytes adult (HEKa)
Format: cell-based
Details: HEKa cells, 3 ng/mL HEK-human IL-17AA + 10 ng/mL human TNFalpha; read-out: Rel EC50 IL-8 release assay
Procedure, shortened: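 Adult human epidermal keratinocytes stimulated 68-72 h at 37 °C with 3 ng/mL HEK-derived human IL-17AA plus 10 ng/mL TNF-alpha (final) in the presence of compound; TNF-alpha alone defines 100% inhibition. Secreted IL-8 measured by HTRF as percent of controls; relative IC50/Emax from four-parameter fit (r^2>0.9), cytotoxicity by PrestoBlue.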

Row | SMILES | EC50
1 | Cc1noc(C)c1-c1ccc(NC(=O)[C@@H](NC(=O)c2ccnn2C(C)C)C(C2CC2)C2CC2)cc1 [Example 360, N-[(1S)-1-(dicyclopropylmethyl)-2-[4-(3,5-dimethylisoxazol-4-yl)anilino]-2-oxo-ethyl]-2-isopropyl-pyrazole-3-carboxamide] | < 100 nM
2 | Cc1ncoc1-c1ccc(NC(=O)[C@@H](NC(=O)c2ccnn2C(C)C)C(C2CC2)C2CC2)cc1 [Example 361, N-[(1S)-1-(dicyclopropylmethyl)-2-[4-(4-methyloxazol-5-yl)anilino]-2-oxo-ethyl]-2-isopropyl-pyrazole-3-carboxamide] | 100 to 1000 nM
3 | CCn1nccc1C(=O)N[C@H](C(=O)Nc1ccc(-c2c(C)ncn2C)c(O)c1)C(C1CC1)C1CC1 [Example 362, N-[(1S)-1-(dicyclopropylmethyl)-2-[4-(3,5-dimethylimidazol-4-yl)-3-hydroxy-anilino]-2-oxo-ethyl]-2-ethyl-pyrazole-3-carboxamide] | 100 to 1000 nM
4 | Cc1ncn(C)c1-c1ccc(NC(=O)[C@@H](NC(=O)c2ccnn2C(C)C)C(C2CC2)C2CC2)cc1O [Example 363, N-[(1S)-1-(dicyclopropylmethyl)-2-[4-(3,5-dimethylimidazol-4-yl)-3-hydroxy-anilino]-2-oxo-ethyl]-2-isopropyl-pyrazole-3-carboxamide] | < 100 nM
5 | CCn1nccc1C(=O)N[C@H](C(=O)Nc1ccc(-c2c(C)cnn2C)c(O)c1)C(C1CC1)C1CC1 [Example 364, N-[(1S)-1-(dicyclopropylmethyl)-2-[4-(2,4-dimethylpyrazol-3-yl)-3-hydroxy-anilino]-2-oxo-ethyl]-2-ethyl-pyrazole-3-carboxamide] | < 100 nM
6 | Cc1cnn(C)c1-c1ccc(NC(=O)[C@@H](NC(=O)c2ccnn2C(C)C)C(C2CC2)C2CC2)cc1O [Example 365, N-[(1S)-1-(dicyclopropylmethyl)-2-[4-(2,4-dimethylpyrazol-3-yl)-3-hydroxy-anilino]-2-oxo-ethyl]-2-isopropyl-pyrazole-3-carboxamide] | < 100 nM
7 | Cc1cnn(C)c1-c1ccc(NC(=O)[C@@H](NC(=O)c2ccnn2C(C)CO)C(C2CC2)C2CC2)cc1O (stereo partly drawn) [Example 366, N-[(1S)-1-(dicyclopropylmethyl)-2-[4-(2,4-dimethylpyrazol-3-yl)-3-hydroxy-anilino]-2-oxo-ethyl]-2-(2-hydroxy-1-methyl-ethyl)pyrazole-3-carboxamide] | 100 to 1000 nM
8 | Cc1cnn(C)c1-c1ccc(NC(=O)[C@@H](NC(=O)c2ccnn2C(C)C)C(C2CC2)C2CC2)cc1 [Example 367, N-[(1S)-1-(dicyclopropylmethyl)-2-[4-(2,4-dimethylpyrazol-3-yl)anilino]-2-oxo-ethyl]-2-isopropyl-pyrazole-3-carboxamide] | < 100 nM
9 | CC(C)n1nccc1C(=O)N[C@H](C(=O)Nc1ccc(-c2c(C3(O)CC3)cnn2C)cc1)C(C1CC1)C1CC1 [Example 368, N-[(1S)-1-(dicyclopropylmethyl)-2-[4-[4-(1-hydroxycyclopropyl)-2-methyl-pyrazol-3-yl]anilino]-2-oxo-ethyl]-2-isopropyl-pyrazole-3-carboxamide] | 100 to 1000 nM
10 | CCn1nccc1C(=O)N[C@H](C(=O)Nc1ccc(-n2cnc(C)c2C)cc1)C(C1CC1)C1CC1 [Example 369, N-[(1S)-1-(dicyclopropylmethyl)-2-[4-(4,5-dimethylimidazol-1-yl)anilino]-2-oxo-ethyl]-2-ethyl-pyrazole-3-carboxamide] | 100 to 1000 nM
11 | CCn1nccc1C(=O)N[C@H](C(=O)Nc1ccc(-n2c(C)c[nH]c2=O)cc1)C(C1CC1)C1CC1 [Example 370, N-[(1S)-1-(dicyclopropylmethyl)-2-[4-(4-methyl-2-oxo-1H-imidazol-3-yl)anilino]-2-oxo-ethyl]-2-ethyl-pyrazole-3-carboxamide] | > 1000 nM
12 | CC(C)n1nccc1C(=O)N[C@H](C(=O)Nc1ccc(-c2c(C(F)(F)F)ncn2C)cc1)C1CCCCC1 [Example 371A, N-[(1S)-1-cyclohexyl-2-[4-[3-methyl-5-(trifluoromethyl)imidazol-4-yl]anilino]-2-oxo-ethyl]-2-isopropyl-pyrazole-3-carboxamide] | 100 to 1000 nM
13 | CC(C)n1nccc1C(=O)N[C@H](C(=O)Nc1ccc(-c2ncn(C)c2C(F)(F)F)cc1)C1CCCCC1 [Example 371B, N-[(1S)-1-cyclohexyl-2-[4-[1-methyl-5-(trifluoromethyl)imidazol-4-yl]anilino]-2-oxo-ethyl]-2-isopropyl-pyrazole-3-carboxamide] | > 1000 nM
14 | Cn1cncc1-c1ccc(NC(=O)[C@@H](NC(=O)c2ccnn2C)[C@@H]2CCCc3ccccc32)cc1 [Example 375, 2-Methyl-N-[(1S)-2-[4-(3-methylimidazol-4-yl)anilino]-2-oxo-1-[(1R)-tetralin-1-yl]ethyl]pyrazole-3-carboxamide] | > 1000 nM
15 | Cn1cncc1-c1ccc(NC(=O)[C@@H](NC(=O)c2ccnn2C)[C@@H]2CCc3ccccc32)cc1 [Example 376, N-[(1S)-1-[(1R)-indan-1-yl]-2-[4-(3-methylimidazol-4-yl)anilino]-2-oxo-ethyl]-2-methyl-pyrazole-3-carboxamide] | > 1000 nM
16 | Cn1cncc1-c1ccc(NC(=O)[C@@H](NC(=O)c2ccnn2C)[C@H]2CCc3ccccc32)cc1 [Example 377, N-[(1S)-1-[(1S)-indan-1-yl]-2-[4-(3-methylimidazol-4-yl)anilino]-2-oxo-ethyl]-2-methyl-pyrazole-3-carboxamide] | 100 to 1000 nM
17 | Cc1nccn1-c1ccc(NC(=O)[C@@H](NC(=O)c2ccnn2C)[C@@H]2CCCc3ccccc32)cc1 [Example 378, 2-methyl-N-[(1S)-2-[4-(2-methylimidazol-1-yl)anilino]-2-oxo-1-[(1R)-tetralin-1-yl]ethyl]pyrazole-3-carboxamide] | > 1000 nM
18 | Cc1nc[nH]c1-c1ccc(NC(=O)[C@@H](NC(=O)c2ccnn2C(C)C)C(C2CC2)C2CC2)cc1 [Example 379, N-[(1S)-1-(dicyclopropylmethyl)-2-[4-(4-methyl-1H-imidazol-5-yl)anilino]-2-oxo-ethyl]-2-isopropyl-pyrazole-3-carboxamide] | > 1000 nM

Now from value to compound:

Row | EC50 | SMILES
19 | 100 to 1000 nM | CC(C)c1nc[nH]c1-c1ccc(NC(=O)[C@@H](NC(=O)c2ccnn2C(C)C)C(C2CC2)C2CC2)cc1 [Example 380, N-[(1S)-1-(dicyclopropylmethyl)-2-[4-(4-isopropyl-1H-imidazol-5-yl)anilino]-2-oxo-ethyl]-2-isopropyl-pyrazole-3-carboxamide]
20 | 100 to 1000 nM | CC(C)n1nccc1C(=O)N[C@H](C(=O)Nc1ccc(-c2[nH]cnc2C2CC2)cc1)C(C1CC1)C1CC1 [Example 381, N-[(1S)-2,2-dicyclopropyl-1-[[4-(4-cyclopropyl-1H-imidazol-5-yl)phenyl]carbamoyl]ethyl]-2-isopropyl-pyrazole-3-carboxamide]
21 | 100 to 1000 nM | Cc1cn[nH]c1-c1ccc(NC(=O)[C@@H](NC(=O)c2ccnn2C(C)C)C(C2CC2)C2CC2)cc1 [Example 382, N-[(1S)-1-(dicyclopropylmethyl)-2-[4-(4-methyl-1H-pyrazol-5-yl)anilino]-2-oxo-ethyl]-2-isopropyl-pyrazole-3-carboxamide]
22 | < 100 nM | Cc1[nH]nc(C2CC2)c1-c1ccc(NC(=O)[C@@H](NC(=O)c2ccnn2C(C)C)C(C2CC2)C2CC2)cc1 [Example 383, N-[(1S)-2,2-dicyclopropyl-1-[[4-(3-cyclopropyl-5-methyl-1H-pyrazol-4-yl)phenyl]carbamoyl]ethyl]-2-isopropyl-pyrazole-3-carboxamide]
23 | < 100 nM | Cc1[nH]nc(C(C)C)c1-c1ccc(NC(=O)[C@@H](NC(=O)c2ccnn2C(C)C)C(C2CC2)C2CC2)cc1 [Example 386, N-[(1S)-1-(dicyclopropylmethyl)-2-[4-(3-isopropyl-5-methyl-1H-pyrazol-4-yl)anilino]-2-oxo-ethyl]-2-isopropyl-pyrazole-3-carboxamide]
24 | < 100 nM | CC(C)c1n[nH]c(C(C)C)c1-c1ccc(NC(=O)[C@@H](NC(=O)c2ccnn2C(C)C)C(C2CC2)C2CC2)cc1 [Example 387, N-[(1S)-1-(dicyclopropylmethyl)-2-[4-(3,5-diisopropyl-1H-pyrazol-4-yl)anilino]-2-oxo-ethyl]-2-isopropyl-pyrazole-3-carboxamide]
25 | 100 to 1000 nM | Cc1n[nH]c(C)c1-c1ccc(NC(=O)[C@@H](NC(=O)c2ccnn2CC(C)O)C(C2CC2)C2CC2)cc1 (stereo partly drawn) [Example 388, N-[(1S)-1-(dicyclopropylmethyl)-2-[4-(3,5-dimethyl-1H-pyrazol-4-yl)anilino]-2-oxo-ethyl]-2-(2-hydroxypropyl)pyrazole-3-carboxamide]
26 | < 100 nM | Cc1[nH]nc(C2CC2)c1-c1ccc(NC(=O)[C@@H](NC(=O)c2ccnn2[C@@H](C)CO)C(C2CC2)C2CC2)cc1 [Example 389, N-[(1S)-2,2-dicyclopropyl-1-[[4-(3-cyclopropyl-5-methyl-1H-pyrazol-4-yl)phenyl]carbamoyl]ethyl]-2-[(1S)-2-hydroxy-1-methyl-ethyl]pyrazole-3-carboxamide]
27 | < 100 nM | Cc1[nH]nc(C2CC2)c1-c1ccc(NC(=O)[C@@H](NC(=O)c2ccnn2[C@H](C)CO)C(C2CC2)C2CC2)cc1 [Example 390, N-[(1S)-2,2-dicyclopropyl-1-[[4-(3-cyclopropyl-5-methyl-1H-pyrazol-4-yl)phenyl]carbamoyl]ethyl]-2-[(1R)-2-hydroxy-1-methyl-ethyl]pyrazole-3-carboxamide]
28 | < 100 nM | CCCn1nccc1C(=O)N[C@H](C(=O)Nc1ccc(-c2c(C3CC3)n[nH]c2C)cc1)C(C1CC1)C1CC1 [Example 391, N-[(1S)-2,2-dicyclopropyl-1-[[4-(3-cyclopropyl-5-methyl-1H-pyrazol-4-yl)phenyl]carbamoyl]ethyl]-2-propyl-pyrazole-3-carboxamide]
